The nature of data set [1]: Plasma and urinary profiles of isoflavones after acute and chronic administration of isoflavone tablets (Promensil composition), HPLC. The method, then:
The plasma and urinary profiles of isoflavones after acute and chronic administration of […] of isoflavones (genistein […], daidzein 0.5 mg, biochanin […], and formononetin 14 mg) in fourteen subjects was analysed. The composition corresponds to the Promensil product (Registered Trade Mark, Novogen Research Pty Ltd, Australia). Venous plasma and urine were collected at intervals for 24 h after which subjects commenced taking two tablets each day for two weeks and repeated plasma samples and urine were collected for a 48 h period after the last does. Plasma and urine isoflavones were assayed by HPLC.

The test system of data set [2] is cancer. The note with it: cited from earlier work.
Data set [3] deals with human estrogen receptor (hER). The conditions noted are these: cited from earlier work.

The source of these data is patent US6599536B1, “Therapy of estrogen-associated disorders” (Novogen Research Pty Ltd, priority 1998, dated 2003).

On to `COc1ccc(-c2coc3cc(O)ccc3c2=O)cc1` [formononetin], for which, in data set [1] (in vivo), the “detectability in plasma and urine” value was “remained detectable in both plasma and urine at all times”.
Take `O=c1c(-c2ccc(O)cc2)coc2cc(O)ccc12` [daidzein]: the “plasma concentrations relative to the methylated precursors” value in data set [1] (in vivo) is “much higher concentrations than their methylated precursors”. Moreover, the anti-cancer actions result in data set [2] was “virtually none”.
As for `COc1ccc(-c2coc3cc(O)cc(O)c3c2=O)cc1` [biochanin], the “detectability in plasma and urine” value in data set [1] (in vivo) was “remained detectable in both plasma and urine at all times”. Further, in data set [3], the “binding affinity for the hER compared to daidzein” value is “lower binding affinity” and the “estrogenic potency relative to daidzein” value was “about the same estrogenic potency as daidzein”.
As for `O=c1c(-c2ccc(O)cc2)coc2cc(O)cc(O)c12` [genistein], the “plasma concentrations relative to the methylated precursors” value in data set [1] (after acute dosing of the isoflavone tablets) is listed as “much higher concentrations than their methylated precursors”. Further, the “estrogenic potency relative to daidzein” value in data set [3] is listed as “approximately ten fold more estrogenic than daidzein”. For the same compound, in data set [2], the anti-cancer actions result is “potent anti-cancer actions”.
